The values that follow come from publication PMC11232385, “Selective depletion of HBV-infected hepatocytes by class A capsid assembly modulators requires high levels of intrahepatic HBV core protein” (Antimicrobial Agents and Chemotherapy, 2024).

The structures appear in SMILES notation. Read-outs that look alike come from different tables or passages of the source.

Data set [1] concerns HBV. Further details: method as in doi:10.1016/S0168-8278(20)32197-8. As to conditions: cited from earlier work.
In another data set the test system is HBV genotype C. The format is in vivo, uPA-SCID mice. Conditions: uPA-SCID mouse; for mean decrease of serum HBV DNA: compared to the vehicle, 84 days oral QD; for HBsAg decline: day 84 vs day 0. The method, then: General health observations including weight were monitored weekly. All animal protocols were performed in accordance with the Guide for the Care and Use of Laboratory Animals and approved by the Animal Welfare Committee of Phoenix Bio Co., Ltd. All mice were housed individually and maintained in accordance with the Animal Ethics Committee of PhoenixBio (resolution #2214).
HBV-infected mice were randomized into four different treatment groups based on body weight, blood human albumin (h-Alb), and serum HBV DNA concentrations. All mice had blood h-Alb levels above 12 mg/mL and serum HBV DNA levels above 6.8 × 10^8 copies/mL. […] Mice were followed for an additional 28 days following cessation of treatment at day 84. Mouse serum was monitored weekly for serum HBV DNA and HBV antigens and biweekly for human (h) ALT1. Serum HBsAg and HBeAg concentrations were determined by SRL, Inc. (Tokyo, Japan) based on Chemiluminescent Enzyme Immuno Assay. HBV DNA concentration was performed using the TaqMan Fast Advanced Master Mix (Applied Biosystems, Thermo Fisher Scientific Inc.) and Applied Biosystems 7500 Real-Time PCR System (Applied Biosystems). Serum h-ALT1 concentration was determined by the Institute of Immunology Co., Ltd. (Tokyo, Japan) based on Enzyme-Linked ImmunoSorbent Assay.
(§1) Dewaxing and unmasking of antigens were performed on a Bond RX autostainer (Leica Biosystem), and subsequent assay modified for a single round of staining was performed using the Opal technology workflow (Akoya Biosciences), as described previously ([39]).

The next data set concerns PHH. Put plainly: Cytotoxicity (alamarBlue) in HBV-infected PHH, 6 days of treatment. The format is cell-based, human. The procedure:
(§2) Cryopreserved PHHs isolated from multiple donors were purchased from Thermo Fisher Scientific (Waltham, MA), Bioreclamation IVT (Hicksville, NY), or Lonza (USA). PHH culturing conditions as previously described ([11]). Approximately 24 h after plating, PHH was infected with HepAD38-derived HBV virions ([36]) (genotype D virus) at 500 viral genome equivalents per cell in a maintenance medium supplemented with 4% PEG 8000 (Promega, Madison, WI; V3011). The infection was allowed to proceed for 20–24 h before removing remaining extracellular virions by washing with a maintenance medium three times.
(§3) Antiviral activity or cytotoxicity of each test compound was determined from, extracellular HBV DNA, HBeAg, HBsAg, and alamarBlue data by comparing compound-treated PHH to DMSO-treated PHH to generate a percent of DMSO control value (% DMSO control). The % DMSO control was calculated by the following equation: % DMSO Control = 100× (XC/XD) where XC is the signal from the compound-treated PHH, and XD is the signal from the DMSO-treated PHH. The percentage of DMSO control for HBV DNA, HBeAg, HBsAg, and alamarBlue was plotted vs the log of each compound concentration in GraphPad Prism (version 6; GraphPad Software, La Jolla, CA) to generate dose-response curves. […] Error bars represent SD. Statistical analyses were performed by two-way analysis of variance (ANOVA) and Pearson’s correlation tests.

For another data set, the system named is HBV genotype D. Put plainly: Antiviral activity in HBV-infected PHH, drugs added day 3 post infection, 6 days of treatment. The format is cell-based, Hepatitis B virus. The method, then:
as §2
Extracellular HBsAg and HBeAg were detected in culture media by an electrochemiluminescence assay (Meso Scale Discovery [MSD]) as previously described ([37]).
Extracellular HBV DNA from PHH supernatants was purified using the Qiagen DNeasy 96 kit (69582) following the protocol recommended by the manufacturer. Quantification of HBV DNA by qPCR amplification of the HBV X region of the genome was performed as previously reported ([11]).
as §3

For data set [2] the following is noted: uPA-SCID mouse, 100 mg-eq/kg oral QD.
The conditions of data set [3]: AAV-HBV mouse, 100 mg-eq/kg oral QD.
For the next data set, the system named is AAV-HBV (HBV genotype D). Put plainly: Efficacy study in the AAV-HBV mouse model. The format is in vivo, C57BL/6 mice. As to conditions: for serum ALT: during 56 days of treatment; for serum HBV DNA reduction / reduction of HBc-positive cells in the liver / HBeAg reduction / HBsAg reduction: end of treatment (day 56); for serum HBV DNA reduction: oral QD; for reduction of HBc-positive cells in the liver: immunofluorescence; for HBeAg reduction / HBsAg reduction: relative to vehicle. The procedure: Recombinant AAV (serotype 8) carrying the 1.3 copy HBV genome (genotype D; serotype ayw) and empty AAV were provided by Beijing FivePlus Molecular Medicine Institute (Beijing, China). C57BL/6 mice were provided by Shanghai Lingchang Bio Tech Co. Ltd (Shanghai, China). Studies were conducted by Covance Pharmaceutical R&D (Shanghai, China). All procedures implemented during the studies followed local animal welfare legislation, Covance global policies and procedures, and the Guide for the Care and Use of Laboratory Animals.
C57BL/6 mice (male; 4–5 weeks of age) were injected with 200 µL PBS containing 1 × 10^11 vge recombinant virus per mouse through the tail vein. Twenty-eight days after AAV-HBV injection, the mice were bled retro-orbitally to monitor HBsAg and HBV genomic DNA in serum. Based on the HBsAg, HBeAg, and HBV DNA levels and body weight, AAV-HBV-infected mice were selected and randomized into groups (six animals per group) for compound and/or siRNA treatment. […] LNP empty and LNP siRNA 3 mg/kg were injected intravenously at 4 mL/kg on dosing days 0, 14, 28, 42, and 56. […] Serum HBsAg, HBeAg, and HBV DNA were measured twice weekly. ALT was measured once weekly throughout the study. Serum HBsAg and HBeAg were determined by […] i2000 (Abbott Laboratories, Lake Bluff, IL, USA). Serum HBV-DNA was analyzed by ABI7500 (Applied Biosystems, Foster City, CA, USA) and a detection kit (Sansure Biotech Inc., Changsha, Hunan, China). Serum ALT was determined using Roche Cobas 6000 Chemistry Analyzer (Roche Diagnostics, Mannheim, Germany) and supporting reagents.
as §1

A further data set deals with HBV cccDNA. Conditions: cited from earlier work.
Data set [4] has as its system HBV. Further details: method as in doi:10.1016/S0168-8278(22)00964-3, doi:10.1016/S0168-8278(22)02029-3. Conditions: treatment-naïve and NA-suppressed patients, with an NA; cited from earlier work.

On to `CCOC(=O)C1=C(CN2CCOCC2)NC(c2nccs2)=NC1c1ccc(F)cc1Br` (stereo not shown) [GLS4], for which the HBsAg reduction in the data set with HBV [1] (treatment-naïve HBeAg-positive patients) is recorded as 0.4 log10 IU/mL. The HBsAg effect result in the data set on HBV [1] (virally suppressed patients) is recorded as “no effect”.

As for `CNC(=O)C1(NC(=O)C(=O)c2c(C)c(C(=O)Nc3ccc(F)c(F)c3)n3c2CCC3)CC(F)(F)C1` [GS-SBA-1P], in the data set on HBV genotype C, the “mean decrease of serum HBV DNA” value is 5.0 log10 and the HBsAg decline is reported as 0.4 log10. Further, in the data set with HBV genotype C (immunofluorescence, compared to vehicle or TAF-treated animals), the “reduction of HBc-positive cells in the liver” value (from here on “reduction … in the liver”) came out at 30%. This molecule also gave a CC50 in the data set with PHH of more than 2000 nM. Moreover, in the data set with HBV genotype D (extracellular HBV DNA, mean ± SD, read-out: Viral DNA EC50), the concentration for a half-maximal effect (EC50) is 12 ± 1.2 nM. The EC50 in the data set with HBV genotype D (read-out: HBeAg EC50) was more than 2000 nM. Further, the half-maximal effective concentration (EC50) in the data set on HBV genotype D (read-out: HBsAg EC50) was more than 2000 nM. For the same molecule, in [2], the “plasma exposures over the mouse plasma-adjusted EC50 of HBV DNA production” value was “greater than 76 fold”. Besides, in [3], the “plasma and liver concentrations over the paEC50” value is on record as “approximately 76 fold”. For the same molecule, in the data set with AAV-HBV (HBV genotype D), the “serum ALT” value is recorded as “no changes”, the “serum HBV DNA reduction” value turned out to be 3.7 log10, the “reduction … in the liver” value was “minimal reduction” and the HBeAg reduction result was “no changes”. Moreover, the HBsAg reduction entry with AAV-HBV (HBV genotype D) is recorded as “no changes”. Moreover, the “concentration blocking cccDNA establishment over the HBV DNA plasma-adjusted EC50” value in the data set with HBV cccDNA is listed as “six-fold”.

As to `CCOC(=O)C1=C(CN2CCN3C(=O)N(CC(C)(C)C(=O)O)C[C@@H]3C2)N=C(c2nccs2)N[C@H]1c1cccc(F)c1C` [RG7907], in the data set on HBV [4], the HBsAg reduction result is “no significant reduction of HBsAg”.

Consider `CC(C)OC(=O)[C@H](C)N[P@](=O)(CO[C@H](C)Cn1cnc2c(N)ncnc21)Oc1ccccc1` [TAF, tenofovir alafenamide], for which, in the data set on HBV genotype C, the “mean decrease of serum HBV DNA” value came to 3.6 log10 and the HBsAg decline stood at 0.35 log10. Also, in the data set with AAV-HBV (HBV genotype D), the “serum ALT” value is reported as “no changes”, the “serum HBV DNA reduction” value stood at 2.5 log10, the “reduction … in the liver” value was “no change” and the HBeAg reduction result is on record as “no changes”. Also, the HBsAg reduction entry with AAV-HBV (HBV genotype D) was “no changes”.

Broadly, the CC50 is the concentration that lowers cell viability or growth by half. A lower CC50 goes with greater toxicity to the cells. As usually defined, the EC50 is the concentration giving half of the maximal effect.
